Reference: US10940216B2, “Cyclic peptides with enhanced nerve-binding selectively, nanoparticles bound with said cyclic peptides, and use of same for real-time in vivo nerve tissue imaging” (Memorial Sloan Kettering Cancer Center, priority 2014, dated 2021)
Ends that are not written are not given here.

Experiments:
[1] = Characterization of NBP-Cy5 conjugates and linear NBP-C′ dots by fluorescence correlation spectroscopy (FCS); format: physicochemical
Protocol: Similarly, cyclic peptide(s) can be bound to nanoparticles for improved quantum enhancement and FCS brightness over the non-bound cyclic peptide.
Measurements were determined from fluorescence correlation spectroscopy (FCS).
The linear nerve binding polypeptide (NBP) NP41 was incorporated onto C′ dots using a PEG linker moiety.

sciatic nerve = experiment: In vivo optical imaging of sciatic nerve and adjacent muscle after iv injection of peptide-dye conjugates; settings: nude mouse; for fluorescence signal at 30 min as percentage of post-injection/initial signal: 150 nmole iv
Protocol: FIGS. 13A-13E show in vivo time-dependent uptake from sciatic nerve and muscle post-iv injection of 17 AA cyclic peptide-dye conjugates using optical imaging. 17 AA cyclic peptide-dye conjugates (Cy5 labeled) were injected intravenously (400 nmole) into the tail veins of nude mouse prior to surgical exposure and imaging of sciatic nerves and adjacent muscle using a Zeiss Lumar stereomicroscope (0.8× objective) with fluorescence imaging capabilities. Pre- and serial post injection (p.i.) images (bright field, fluorescent) were acquired at 8 times points from 15 min to 240 min p.i. Bars indicate mean+/−standard deviation. N=5 per group. Each replicate is from one biological experiment, quantified with five independent fields of view. Region of interest (ROI) analysis was performed over nerve and muscle regions to assess time-dependent signal changes. FIGS. 13A-13E show the absolute and relative fluorescence signal (e.g., percentage of the initial fluorescence signal acquired at 15 min p.i.) of nerves (FIGS. 13A and […]) and adjacent muscle (FIGS. 13B and 13D), respectively.
FIGS. 14A and 14B show in vivo time-dependent uptake from sciatic nerve and muscle post-iv injection of 17 AA linear peptide-dye conjugates using optical imaging. 17 AA linear peptide-dye conjugates (Cy5 labeled) were injected intravenously (150 nmole) into the tail veins of nude mouse prior to surgical exposure and imaging of sciatic nerves and adjacent muscle using a Zeiss Lumar stereomicroscope (0.8× objective) with fluorescence imaging capabilities. Pre- and serial post injection (p.i.) images (bright field, fluorescent) were acquired at 6 times points (15 min-150 min) p.i. Bars indicate mean+/−standard deviation. N=5 per group.
FIGS. 16A-16E show in vivo time-dependent uptake from sciatic nerve and muscle post-iv injection of 17 AA cyclic peptide-dye conjugates using optical imaging. 17 AA cyclic peptide-dye conjugates (Cy5 labeled) were injected intravenously (150 nmole) into the tail veins of nude mouse prior to surgical exposure and imaging of sciatic nerves and adjacent muscle using a Zeiss Lumar stereomicroscope (0.8× objective) with fluorescence imaging capabilities. Pre- and serial post injection (p.i.) images (bright field, fluorescent) were acquired at 6 time points (15 min-150 min) p.i. Bars indicate mean+/−standard deviation. N=5 per group. Each replicate is from one biological experiment, quantified with five independent fields of view. Region of interest (ROI) analysis was performed over nerve and muscle regions to assess time-dependent signal changes. FIGS. 16A-16D show the absolute and relative fluorescence signal (percentage of the initial fluorescence signal acquired at 15 min p.i.) of nerves (FIGS. 16A and 16C) and adjacent muscle (FIGS. 16B and 16D), respectively.

| Compound | # of Cy5 per particles [1] | Hydrodynamic Diameter [1] [nm] | PCS Brightness [1] [kHz] | Quantum Enhancement [1] | fluorescence signal at 30 min as percentage of post-injection/initial signal (sciatic nerve; listed as 17 AA linear peptide-dye conjugates) | fluorescence signal at 30 min as percentage of post-injection/initial signal (sciatic nerve; listed as linear peptide) [%] | duration of detectable signal after administration (in words) (sciatic nerve; iv) | nerve-to-muscle or contrast ratios over time (in words) (sciatic nerve; iv, listed as linear peptide) | nerve-to-muscle or contrast ratios over time (in words) (sciatic nerve; iv, listed as linear peptide-dye conjugate) | # of NBP per particles [1] |
| --- | --- | --- | --- | --- | --- | --- | --- | --- | --- | --- |
| CCN1/C(=C/C=C/C=C/C2=[N+](CCCCCC(=O)O)c3ccc(S(=O)(=O)O)cc3C2(C)C)C(C)(C)c2cc(S(=O)(=O)[O-])ccc21 [Cy5] | 1 | 1.4 | 9.2 | 1 |  |  |  |  |  |  |
| Ac-SHSNTQTLAKAPEHTGC (also: Cy5 label, site not given here) [LinearNBP-Cy5] | 1 | 2.4 | 8.9 | 0.9 | about 15% | 10 | barely perceptible thereafter | does not demonstrate as high ratios | roughly equivalent over the first 30 min | 1 |
